In one assay the test system is human CD8^+ T cells. Kind of assay: Memory populations (CCR7/CD45RO) of human CD8^+ T cells by flow cytometry. The class given is cell-based. The protocol:
This contrasts with octyl ester S-2HG, which decreases cell growth from 400 µM (Extended Data Fig. 1c).
Human PBMCs were obtained from NHSBT: Addenbrooke’s Hospital, Cambridge, UK or the Karolinska Hospital Service, Sweden. Ethical approval was obtained from the East of England-Cambridge Central Research Ethics Committee (06/Q0108/281) and consent was obtained from all participants. PBMCs from healthy donors were isolated from blood using discontinuous plasma Percoll gradients. Naive CD8^+ T cells were isolated using the Naive CD8^+ T Cell Isolation Kit (catalogue no. 130-093-244, Miltenyi Biotec), in accordance with the manufacturer’s instructions. Total CD8^+ T cells were purified by either positive or negative magnetic bead sorting (catalogue nos. 130-045-201 and 130-096-495, Miltenyi Biotec). All human CD8^+ T cells were activated with anti-human CD3/CD28 Dynabeads (catalogue no. 11131D, Thermo Fisher Scientific) at a 1:1 cell:bead ratio and cultured in complete RPMI 1640 supplemented with 10% FCS, 100 U ml^−1 penicillin, 100 µg ml^−1 streptomycin and 30 U ml^−1 interleukin-2 (IL-2) (catalogue no. 11147528001, Sigma-Aldrich).
Single-cell suspensions were stained with LIVE/DEAD Fixable Near-IR Dead Cell Stain Kit (catalogue no. 10119, Thermo Fisher Scientific) followed by surface and intracellular staining with fluorochrome-labelled antibodies (Supplementary Tables 1 and 2). Staining of cytoplasmic and nuclear antigens was performed using the Cytofix/Cytoperm Fixation/Permeabilization Kit (catalogue no. 554714, BD Biosciences) and the Transcription Factor Buffer Set (catalogue no. 562725, BD Biosciences), respectively. For the proliferation assays, cells were loaded with CellTrace Violet (catalogue no. C34557, Thermo Fisher Scientific) according to the manufacturer’s instructions. Samples were acquired on an Aurora (Cytek Biosciences).

In another assay the target is T1, human KDM4C enzyme (Homo sapiens, UniProt Q9H3R0).
T1 construct: purchased BPS Bioscience 50105
Kind of assay: Cell-free KDM4C enzymatic activity assay. In kind it is biochemical. On the procedure:
A total of 2 nM of the human TET2 enzyme (catalogue no. 50162, BPS Bioscience) or 4 nM of the human KDM4C enzyme (catalogue no. 50105, BPS Bioscience) was incubated with the substrate of 30 nM single-stranded DNA (ssBiotin 26 nt Me-C Oligo, Genscript), in the presence of αKG (catalogue no. K3752, Sigma-Aldrich), 10 µM ammonium iron(II) sulphate hexahydrate (catalogue no. F3754, Sigma-Aldrich) in assay buffer (50 mM HEPES (catalogue no. 15630-080, Gibco), pH 7.0, 100 mM NaCl, 0.01% Pluronic F-127, 1 mM TCEP (S16054, Shanghai Yuanye Bio-Technology Company), 2 mM ascorbic acid (A5960, Sigma-Aldrich), 0.2 mg/ml BSA (catalogue no. B2064, Sigma-Aldrich) and 1,000 U ml^−1 catalase (catalogue no. C40, Sigma-Aldrich)). […] The concentration of αKG used in the standard assay was calculated for each enzyme batch and is the concentration of substrate at which half the maximum reaction rate is achieved. […] The product was detected by using a 5 nM anti-5hmC antibody (catalogue no. 39999, Active Motif), 5 nM Eu-Protein A (catalogue no. 61PRAKLB, Cisbio), 6.25 nM streptavidin-Alexa Fluor 647 (catalogue no. S21374, Thermo Fisher Scientific) and 10 mM EDTA (catalogue no. 0369, Sigma-Aldrich). […]
The percentage of inhibition was calculated with the following formula: inhibition% = (1−(signal value per well−average low control)/(average high control−average low control)) × 100. […]

For the next assay, the target named is T2, human TET2 enzyme (Homo sapiens, UniProt Q6N021).
T2 construct: purchased BPS Bioscience 50162
The assay can be described thus: Cell-free TET2 enzymatic activity assay. The class given is biochemical. The protocol:
A total of 2 nM of the human TET2 enzyme (catalogue no. 50162, BPS Bioscience) or 4 nM of the human KDM4C enzyme (catalogue no. 50105, BPS Bioscience) was incubated with the substrate of 30 nM single-stranded DNA (ssBiotin 26 nt Me-C Oligo, Genscript), in the presence of αKG (catalogue no. K3752, Sigma-Aldrich), 10 µM ammonium iron(II) sulphate hexahydrate (catalogue no. F3754, Sigma-Aldrich) in assay buffer (50 mM HEPES (catalogue no. 15630-080, Gibco), pH 7.0, 100 mM NaCl, 0.01% Pluronic F-127, 1 mM TCEP (S16054, Shanghai Yuanye Bio-Technology Company), 2 mM ascorbic acid (A5960, Sigma-Aldrich), 0.2 mg/ml BSA (catalogue no. B2064, Sigma-Aldrich) and 1,000 U ml^−1 catalase (catalogue no. C40, Sigma-Aldrich)). The concentration of αKG used for the TET2 standard and competitive assays was 115 µM and 4,500 µM, respectively. The concentration of αKG used for the KDM4C standard and competitive assays was 10 µM and 50 µM, respectively. The concentration of αKG used in the standard assay was calculated for each enzyme batch and is the concentration of substrate at which half the maximum reaction rate is achieved. DEG and glutaric acid were used in threefold serial dilution and the maximum concentration used was 5 mM. The pre-incubation time of the inhibitors with the TET2 mixture was 30 min at room temperature. The reaction step was at room temperature for 90 min. The product was detected by using a 5 nM anti-5hmC antibody (catalogue no. 39999, Active Motif), 5 nM Eu-Protein A (catalogue no. 61PRAKLB, Cisbio), 6.25 nM streptavidin-Alexa Fluor 647 (catalogue no. S21374, Thermo Fisher Scientific) and 10 mM EDTA (catalogue no. 0369, Sigma-Aldrich). For the standard curve, the ssBiotin 26 nt HydMe-C Oligo was used. The assays were performed in technical duplicates in a 384-well plate. Inhibitor analysis was performed within the linear range of catalysis.
The percentage of inhibition was calculated with the following formula: inhibition% = (1−(signal value per well−average low control)/(average high control−average low control)) × 100. Data were fitted using Prism (GraphPad Software) with a four-parameter equation via ‘log(inhibitor) versus response−variable slope’ model.

Assay [1] concerns HIF-P4H activity against pFLAG-Gal4-mHIF-1α NTAD. The assay can be described thus: HIF-PH activity luciferase reporter assay in MEFs. In kind it is cell-based, mouse. The text has this:
To test HIF-P4H inhibition via DEG treatment in a cellular system, we used a luciferase reporter assay driven by a Gal4 response element (GRE-luc), pFLAG-Gal4-mHIF-1α N-terminal transcription activation domain (NTAD)[35]. The NTAD contains proline residues that are hydroxylated by HIF-P4H enzymes to target the protein for degradation; thus, luciferase expression in this assay is controlled by HIF-P4H hydroxylation activity against the pFLAG-Gal4-mHIF-1α NTAD.
MEFs were transiently transfected using Lipofectamine 2000 (Thermo Fisher Scientific) with 20 ng per expression plasmid for 2 × 10^4 cells per well in a 96-well plate. Cells were treated with transfection mixes for 8 h.
Generation of plasmids for the HIF-PH activity luciferase reporter assay has been described previously: luciferase reporter driven by GRE-luc pFLAG-Gal4-mHIF-1α NTAD[35]. […] After 8 h of transient transfection with expression plasmids, cells were treated with experimental medium containing metabolites and drugs as described in the figure legends for 16 h; then, the luciferase signal assessed using the Steady-Glo Luciferase Assay System (Promega Corporation) detected using a luminometer. […]

T1 sequence (Q9H3R0 2-372 limits assumed): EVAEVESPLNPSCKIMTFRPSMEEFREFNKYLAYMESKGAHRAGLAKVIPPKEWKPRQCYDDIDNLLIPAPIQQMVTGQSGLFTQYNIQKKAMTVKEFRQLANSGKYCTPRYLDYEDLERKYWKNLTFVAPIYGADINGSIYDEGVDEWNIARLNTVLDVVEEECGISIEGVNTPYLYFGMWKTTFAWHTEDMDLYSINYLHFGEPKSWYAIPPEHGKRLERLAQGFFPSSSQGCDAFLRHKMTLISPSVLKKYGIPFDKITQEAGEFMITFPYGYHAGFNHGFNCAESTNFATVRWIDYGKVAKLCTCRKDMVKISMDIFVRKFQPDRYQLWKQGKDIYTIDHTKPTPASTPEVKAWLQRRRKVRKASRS

Take `CCOC(=O)CCCC(=O)OCC` [DEG, Diethyl glutarate]: in the assay with human CD8^+ T cells (7 days of culture with DEG), the “TCM population (CCR7^hiCD45RO^hi)” value was “increased the TCM population” and the “effector memory T (TEM) cell population (CCR7^loCD45RO^hi)” value is reported as “decreased”. In addition, the KDM4C inhibition entry at human KDM4C enzyme (cell-free, DEG alone) is given as “not capable of inhibiting”. Also, the TET2 inhibition result at human TET2 enzyme (cell-free, increasing concentrations, maximum 5 mM) was “did not inhibit”. The “cellular HIF-P4H activity” value in assay [1] (MEFs, 16 h, increasing concentrations of DEG) is listed as “can inhibit”.

Consider `O=C(O)CCCC(=O)O` [glutarate, glutaric acid], for which the TCM populations entry with human CD8^+ T cells (glutarate alone (not esterified), higher doses, 10 days of culture) was “capable of increasing TCM populations”. Also, the IC50 against human KDM4C enzyme is 1000 µM; on human TET2 enzyme (IC50 TET2 + 40× αKG, αKG 4,500 µM (competitive assay)), about 5000 µM; on human TET2 enzyme (IC50 recombinant TET2, cell-free), 1500 µM. The “mode of TET2 inhibition” value at human TET2 enzyme (reduced inhibition with increased levels of αKG) is given as “competitive with αKG”. The “mode of HIF-P4H-1 inhibition” value in assay [1] (MEFs treated 16 h with DEG and dimethyl αKG) was “αKG-competitive”.

The values are drawn from article PMC10590756, “Glutarate regulates T cell metabolism and anti-tumour immunity” (Nature Metabolism, 2023).
